Assay results taken from US20170202878A1, “Method for Preventing or Treating a Protein Aggregation Disease” (Queen Mary University of London, priority 2014, published 2017).

Key:
[1] = tested on: RNAse-aggregated proteins from human neurons; assay: RNA-mediated re-folding of RNAse-aggregated proteins; assay type: biochemical; conditions: for protein solubilising effect of G-quadruple-forming and non-forming oligos: RNAse aggregated proteins from human neurons, aggregated proteins quantified
Procedure: Proteins were isolated from neuronal lysate by RNAse A/T1 treatment and centrifugation. Pelleted proteins were dissolved in 50 μl of denaturation buffer (20 mM Tris-HCl pH 7.5, 6 M Guanidine hydrochloride, 1% Triton X-100, 20 mM DTT) and sonicated for 5 min at room temperature. […] Dialysis was performed against 600 ml PBS buffer at 4° C. overnight after which the PBS was replaced with fresh PBS (400 ml) and the container placed in a water bath and kept at 37° C. for 1 h. The dialysed samples were transferred to 1.5 ml tubes and the volume adjusted to 100-200 μl with PBS. 7.5-10% of this was taken as Input. Precipitated proteins (Pel 1) were pelleted by centrifugation at 21.000×g for 10 min at +4° C., washed twice in RIPA buffer and processed for SDS-PAGE as before. 7.5-10% of the supernatants was saved (Sup 1) and the remaining volume was either divided into two new tubes supplemented with 0.5 μl vehicle or 0.5 μl RNAse A/T1 or the whole sample placed in one tube and treated with 0.5 μl RNAse A/T1. All samples were incubated at 37° C. for one hour and centrifuged as before. Pelleted proteins (P2) were washed as before and dissolved in SDS/Urea and sonicated. Equal volumes of each fraction were separated on SDS-PAGE gels and then either stained with coomassie or transferred to membranes for western blot analysis. RNA was isolated from cell lysates and purified ribosomes with Trizol LS (Life Technologies) according to the manufacturer's instructions. Ribosomes were isolated from Jurkat T-cells. RNA depleted for rRNA was isolated from the upper two thirds of the supernatant (after pelleting of ribosomes and five times dilution in water) with acid phenol (Life Technologies) followed by EtOH precipitation. RNA from intact cells was isolated with Isol-RNA Lysis Reagent (5 PRIME), according to the manufacturer's instructions. All RNA samples were dissolved in TE (10 mM Tris-HCl pH 8.0, 1 mM EDTA). RNA was analysed by 1.5% agarose or 6% PAGE/8M Urea gel electrophoresis and visualised with Ethidium Bromide. […]

[2] = tested on: aggregated proteins from Jurkat T-cells; assay: Two-step refolding of proteins with small molecules or synthetic DNA/RNA; conditions: increasing concentrations
[3] = tested on: cell or tissue lysate treated with RNAse A/T1; assay: Sodium orthovanadate: impact on RNAse-induced protein aggregation
Procedure: Cell or tissue lysate was prepared as described above. Lysate (200 μg at 2 μg/ul) is then treated with a mixture of RNAse A and T1 (A/T1), and incubated with increasing concentrations of Sodium Orthovanadate for one hour at 37° C. Aggregated proteins were isolated by centrifugation (21.000×g) at 4° C. for 20 min, washed twice in 500 μl RIPA buffer and then dissolved in 12 μl 6M Guanidine Hydrochloride, 20 mM Tris-HCl pH 7.5 by sonication for 5 min at room temperature. The amount of protein in 5 μl of this solution was then determined by using the BCA Kit (Thermo Scientific) according to the manufacturer's protocol. Data were expressed in arbitrary units (AU) as a fraction of the amount aggregated proteins (P1)/the amount of protein in the Input, and represent mean±s.d, n=2. […] The experiment was repeated with 50 μM SO and increasing concentrations of RNAse A/T1.

lysate from mouse cortex = assay: Ribonucleoside vanadyl: impact on protein aggregation; assay type: biochemical; conditions: 10 mM, 1 hour at 37° C., coomassie SDS-PAGE
[4] = tested on: amyloid-β, tau (MAPT), α-synuclein (SNCA), TARDBP (TDP-43), FUS, HTT, PrP, HNRNPA1, actin, NF-H in human neuronal lysates
[5] = tested on: Huntingtin (HTT), FUS and TARDBP in Jurkat cell lysates; assay type: biochemical, human; conditions: 15 min treatment, then 1 hour at 37° C.

## 18S 1129-69: predicted G4-forming ssDNA oligo derived from human 18S ribosomal RNA, 40 nt
[1]
  protein solubilising effect of G-quadruple-forming and non-forming oligos: can solubilise the proteins

## [Na+].[Na+].[Na+].[O]=[V]([O-])([O-])[O-] [Sodium orthovanadate]
[2]
  prevention of protein aggregation after refolding (BCA assay): can mimic RNA/DNA in preventing protein aggregation after refolding
[3]
  background protein aggregation in lysate: prevents any background protein aggregation
[3]; added to cell or tissue lysate together with RNAses, 1 hour at 37° C., e.g. TDP-43 and huntingtin
  inhibition of RNAse mediated protein aggregation: completely inhibit aggregation of the proteins

## No 4G 1129-69: oligo with same nucleotides as 18S 1129 in an order not predicted to form G-quadruples (DNA TTAAGGGCATCTGATGCGGCGCGTGACGCGGCGCTAAGTG; DNA, backbone not given here)
[1]
  protein solubilising effect of G-quadruple-forming and non-forming oligos: much less efficient

## Ribonucleoside vanadyl
Lysate from mouse cortex
  protein aggregation in lysate in the absence of exogenous RNAse: causes substantial protein aggregation
Lysate from mouse cortex; listed as Riobonucleoside vanadyl (VA)
  protein aggregation in lysate in the absence of exogenous RNAse: causes protein aggregation

## heparin
[1]; denatured in 6M guanidine hydrochloride, dialysed, same amount in weight of nucleic acid or heparin
  re-folding / solubilisation of RNAse-aggregated proteins (global protein profile): neither yeast tRNA nor heparin could substitute for the solubilising capacity of total human RNA

B1: RNase T1: ribonuclease cleaving single-stranded RNA after G (protein, UniProt P00651 27-130, looked up)
Guanyl-specific ribonuclease …: ACDYTCGSNCYSSSDVSTAQAAGYQLHEDGETVGSNSYPHKYNNYEGFDFSVSSPYYEWPILSSGDVYSGGSPGADRVVFNENNQLAGVITHTGASGNNFVECT
[4]
  proteins most efficiently precipitated by the RNase (western blot): FUS

B2: immobilised RNAse A: biotinylated RNAse A coupled to magnetic strepavidine beads (protein, UniProt P61823 27-150, looked up)
Ribonuclease pancreatic: KETAAAKFERQHMDSSTSAASSSNYCNQMMKSRNLTKDRCKPVNTFVHESLADVQAVCSQKNVACKNGQTNCYQSYSTMSITDCRETGSSKYPNCAYKTTQANKHIIVACEGNPYVPVHFDASV
modifications: biotinylated, coupled to streptavidin magnetic beads
[5]
  aggregation of HTT, FUS and TARDBP after mixing 10% treated lysate with non-treated lysate (western blot): increase in aggregation

B3: RNase A: ribonuclease cleaving single-stranded RNA after C and U, from Sigma (protein)
chain: B2 Ribonuclease pancreatic
[4]
  proteins most efficiently precipitated by the RNase (western blot): TARDBP, HTT and PrP
